The values that follow come from patent US10154974B1, “Use of abscisic acid for the prevention and treatment of malaria” (The Regents of the University of California, priority 2015, dated 2018).

The test system of test [1] is liver. Description: Liver histology scoring. In kind it is in vivo, mice. As for the experimental part: (§1) Mice were euthanized on day 7 post-infection. Blood was collected by heart puncture, spun at 8,000 rpm for 8 minutes and the plasma collected for ABA quantification. Livers and spleens were collected, retained in 10% formalin for 24 hours and then stored in 70% ethanol before sectioning and staining with hematoxylin and eosin. Liver sections were blindly scored on a scale from 0 to 3 for pigment levels, Kupffer cell density, portal tract inflammation, hemozoin deposition, extramedullary hematopoiesis, sinusoidal leukocyte density, sinusoidal adherence of leukocytes, and presence of microabscesses. Spleen sections were blindly scored on a scale from 0 to 3 for hyperplasia, extramedullary hematopoiesis, pigment, and levels of histiocytes and neutrophils. Pathology scores of control and treated mice were analyzed by unpaired t-test.

Test [2] deals with spleen. Briefly: Spleen histology scoring. In kind it is in vivo. The settings on record: P. yoelii-infected mice. As for the experimental part: as §1
Test [3] concerns P. yoelii 17XNL. Briefly: P. yoelii transmission from ABA-supplemented mice to A. stephensi (oocyst counts). The test is classed as in vivo. As for the experimental part:
Anopheles stephensi Liston (Indian wild-type strain) were reared and maintained at 27° C. and 75% humidity. For all feeding experiments, 3-5-day-old female mosquitoes were maintained on water pads for 24 hours and then allowed to bloodfeed for 30 minutes on control or ABA-supplemented P. yoelii 17XNL-infected mice. Cohorts of 50 mosquitoes were allowed to feed on each mouse at 5 days post-infection. Immediately after feeding non-engorged mosquitoes were removed. Ten days post-feeding, midguts were dissected, stained with 0.5% mercurochrome, and oocysts counted by microscopy.

The subject of test [4] is AsNOS. Briefly: AsNOS transcript levels in mosquito midgut. The settings on record: midguts, relative to controls, 4-6 hours post-feeding. In kind it is in vivo, Anopheles stephensi. As for the experimental part: (§2) For mosquito immune gene expression, 20 midguts were dissected from mosquitoes in each treatment group at 1, 2, 4, 6, 8 and 24 hours post-feeding. Midguts were sonicated and stored in Trizol at −20° C. for up to a week before RNA was extracted according to manufacturer's instructions. cDNA synthesis was carried out using QantiTect Reverse Transcription Kit (Qiagen) and 200 ng of cDNA used per reaction for qRT-PCR with Sybr Green (Applied Biosystems). Fold changes in expression levels were calculated using the comparative threshold cycle method. Data were normalized to the housekeeping gene ribosomal protein S7 and to the control treatment. Primers and cycling conditions for AsNOS, defensin, LRIM, TEP1, and APL1 were as previously described (Hauck E S, et al. Microbes Infect. 2013; 15:775-87). […] Samples were analyzed in triplicate with 250 ng of cDNA per reaction to confirm uniformity of amplification. […] All expression data were analyzed by one sample t-test.
(§3) Transcript levels of a panel of immune genes previously described to play a role in the mosquito immune response to malaria parasites were examined. […] Mosquitoes were provided with a P. falciparum-infected bloodmeal supplemented with 100 nM ABA or with an equivalent volume of diluent as control, then analyzed at 1-24 hours post feeding.

In test [5] the test system is APL1. Briefly: APL1 expression in mosquito midgut. The test is classed as in vivo, Anopheles stephensi. The conditions noted are these: 100 nM ABA, 4 and 8 hours post-feeding. As for the experimental part: as §2, §3
In test [6] the test system is AMPK. Briefly: AMPK phosphorylation in mosquito midgut. In kind it is in vivo, Anopheles stephensi. The conditions noted are these: midguts of ABA-treated, P. falciparum-fed mosquitoes. As for the experimental part:
(§4) Fold change is shown in levels of phosphorylated AMPK (FIG. 13A), and gsk3 (FIG. 13B) in the midguts of ABA-treated, P. falciparum-fed mosquitoes compared to controls. Each dot represents one replicate of 15 pooled midguts. Data were analyzed by one sample t-test. * p<0.05.

Test [7] concerns gsk3. Description: gsk3 phosphorylation in mosquito midgut. In kind it is in vivo, Anopheles stephensi. The settings on record: midguts of ABA-treated, P. falciparum-fed mosquitoes. As for the experimental part:
as §4

Test [8] in a line: Whole liver and spleen weights. The conditions noted are these: day 9 post-infection with P. yoelii 17XNL. In kind it is in vivo, mice. As for the experimental part: FIG. 20A-C illustrate that ABA supplemented mice have reduced hepatosplenomegaly and evidence of improved liver function. Shown are weights of whole liver (FIG. 20A) and spleen (FIG. 20B) from control and ABA-supplemented mice on day 9 post-infection with P. yoelii 17XNL. Also shown are blood urea nitrogen levels (FIG. 20C) in plasma of uninfected and P. yoelii-infected, control and ABA-supplemented mice on day 11 post-infection. Data were analyzed by unpaired t-test.

Test [9] deals with cytokine and immune-regulators. Description: Cytokine and immune-regulator mRNA in spleen and liver. The conditions noted are these: CD1 mice, day 4 and 7 post-infection. The test is classed as in vivo. As for the experimental part: FIG. 23A-B illustrate that ABA supplementation alters cytokine expression in the spleen and liver of infected mice consistent with enhanced IgG production and inflammasome activation. Shown are mRNA levels of cytokine and immune-regulators in the spleen (FIG. 23A) and liver (FIG. 23B) of control and ABA-supplemented CD1 mice on day 4 and 7 post-infection with P. yoelii 17XNL. Data are shown as −Δct, normalized to β-actin and were analyzed by unpaired t-test. # p<0.1 * p<0.05 ** p<0.01.

In test [10] the test system is IgG1 and IgG2a. Briefly: IgM and IgG antibody isotype concentrations in mouse plasma. The settings on record: days 9, 11 and 13 post-infection. In kind it is in vivo, mice. As for the experimental part:
FIG. 24 illustrates that ABA supplementation increases levels of IgG1 and IgG2a in plasma. Concentrations are shown of IgM and IgG antibody isotypes in mouse plasma with and without ABA supplementation on days 9, 11 and 13 post-infection with P. yoelii 17XNL. Data were analyzed by unpaired t-test.

Test [11] concerns human macrophages. The conditions noted are these: in vitro; cited from earlier work.
The mark [12] stands for this setting: infected mice, day 7 post-infection.

For the compound `CC1=CC(=O)CC(C)(C)[C@@]1(O)/C=C/C(C)=C\C(=O)O` (racemic) [ABA, (2Z,4E)-5-[(1S)-1-hydroxy-2,6,6-trimethyl-4-oxocyclohex-2-en-1-yl]-3-methylpenta-2,4-dienoic acid], the “number of sinusoidal leukocytes in the liver” value in test [1] (absence of infection) is recorded as “decreased”. Also, in [1] (setting [12]), the “adhered leukocytes in the liver” value is “fewer” and the “microabscesses in the liver” value is “fewer”. The “hemozoin deposition, pigment, portal tract inflammation, extramedullary hematopoeisis, Kupffer cell density” value in [1] (liver, P. yoelii-infected mice) was “not altered”. Besides, in test [2], the “histiocyte density, pigment deposition, extramedullary hematopoiesis in the spleen” value is “not altered” and the “lymphoid hyperplasia of the spleen” value was “reduced”. Besides, the “mean oocysts per midgut” value in [3] (A. stephensi fed on ABA-supplemented mice on day 5) stood at 12. The “infection prevalence of mosquitoes” value in [3] (A. stephensi fed on ABA-supplemented mice on day 5, dissected ten days later) was 60.9%. For the same compound, the reduction in prevalence in [3] (vs mosquitoes fed on control mice) is recorded as 31.4%. In addition, the “AsNOS transcript levels induction” value in [4] is recorded as “up to 13 fold”. The APL1 expression result in [5] is recorded as “increased”. For the same compound, the “phosphorylation of AMPK” value in test [6] was “alters phosphorylation”. Further, in test [7], the “phosphorylation of gsk3” value is given as “alters phosphorylation”. The “hepatosplenomegaly (weights of whole liver and spleen)” value in [8] is recorded as “reduced”. Further, the “cytokine expression in the spleen and liver” value in [9] is “alters”. In test [10], the “levels of IgG1 in plasma” value is reported as “increases” and the “levels of IgG2a in plasma” value is given as “increases”. In test [11], the “activation of human macrophages” value is “activate”.
